The record followed here is ChEMBL document CHEMBL1129813, “Synthesis and cell growth inhibitory properties of substituted (E)-1-phenylbut-1-en-3-ones” (Bioorg Med Chem Lett, 1997).

For the assay, the system named is K562. Description: In vitro cell growth inhibitory activity against K562 human chronic myelogenous leukemia cell line. It counts as functional, cell-based.

Where only a bound is given, the exact number is not on record here.

With `COc1cc(/C=C/C(C)=O)cc(OC)c1OC`, the IC50 came to 17 µM.
For `CC(=O)/C=C/c1ccc([N+](=O)[O-])cc1` the value was 2.6 µM.
For `CC(=O)/C=C/c1ccc(F)c(Br)c1` the value was 2.9 µM; for `CC(=O)/C=C/c1ccc(F)cc1`, 6.1 µM; for `COc1ccc(/C=C/C(C)=O)cc1O`, 42 µM.
`CSc1ccc(/C=C/C(C)=O)cc1` came in with an IC50 of 15 µM.
The figure for `CC(=O)/C=C/c1ccco1` is above 100 µM; for `CC(O)CCc1ccc(O)cc1` (configuration not stated) it is above 100 µM.
For `CC(=O)/C=C/c1ccc2ccccc2c1` the value was 7.6 µM; for `COc1cc(/C=C/C(C)=O)cc(OC)c1O`, 56 µM.
The figure for `CC(=O)/C=C/c1ccc(N(C)C)cc1` is 90 µM.
Regarding `CC(=O)/C=C/c1ccc2c(c1)OCO2`, the IC50 is 12 µM.
The figure for `COc1cc(/C=C/C(C)=O)ccc1O` [DEHYDROZINGERONE] is 68 µM.
In turn, `CC(=O)/C=C/c1cc(Br)ccc1F` returned an IC50 of 5.3 µM.
`CC(=O)/C=C/C=C/c1ccccc1` yielded an IC50 of 20 µM.
The figure for `COc1ccc(/C=C/C(C)=O)cc1` is 79 µM.
For the compound `CC(=O)/C=C/c1ccc(C(C)C)cc1`, the concentration for half-maximal inhibition (IC50) came out at 21 µM.
Take `CC(=O)CCc1ccc(O)cc1` [RASPBERRYKETONE]: the half-inhibitory concentration (IC50) is above 100 µM.
For `CC(=O)/C=C/c1ccc(Br)cc1F` the value was 7.4 µM; for `CC(=O)/C=C/c1ccc(OCc2ccccc2)c(OCc2ccccc2)c1`, 8.4 µM; for `CC(=O)/C=C/c1c(F)c(F)c(F)c(F)c1F`, 1.9 µM.
As to `COc1ccc(/C=C/C(C)=O)cc1OC`, inhibition was half-maximal at 34 µM (IC50).
For `CC(=O)/C=C/c1ccc(Cl)cc1` the value was 8.3 µM; for `CC(=O)/C=C/c1ccc(C)cc1`, 7.5 µM.
The figure for `COc1ccc(/C=C/C(C)=O)c(OC)c1` is 30 µM; for `COc1cc(OC)c(/C=C/C(C)=O)c(OC)c1` it is 9.3 µM.
For the compound `COc1cc(N(C)C)ccc1/C=C/C(C)=O`, the IC50 was 68 µM.
The figure for `CC(=O)/C=C/c1cccc([N+](=O)[O-])c1` is 2.6 µM; for `CC(=O)/C=C/c1ccc(C(F)(F)F)cc1` it is 3.3 µM; for `CC(=O)/C=C/c1ccc(Cl)cc1Cl` it is 7.9 µM.
As for `CC(=O)/C=C/c1ccc(O)cc1`, the 50% inhibitory concentration (IC50) amounted to 60 µM.
The compound `CC(=O)/C=C/c1cccc(C(F)(F)F)c1` gave an IC50 of 3.5 µM.
`COc1cc(/C=C/C(C)=O)cc(OC)c1` registered a concentration for half-maximal inhibition (IC50) of 5.8 µM.
For `CC(=O)/C=C/c1cccs1` the value was 20 µM; for `CC(=O)/C=C/c1ccc(OCc2ccccc2)cc1`, 10.3 µM.
The figure for `CC(=O)/C=C/c1ccc(Br)cc1` is 5.6 µM; for `COc1cccc(/C=C/C(C)=O)c1O` it is 9.9 µM.

In general, IC50 refers to the concentration that gives 50% inhibition. Read a low IC50 as higher potency.
